The SangsterLogP compilation

Assay: method code RP-HPLC, from DOI: 10.1021/jm030408h, PMID: 14971904
Molecule COc1ccc2c3c1O[C@H]1C[C@@H](O)C=C[C@@]31CCN(C)C2 has a logP of 0.21.
Molecule C[N+](C)([O-])CCC=C1c2ccccc2CCc2ccccc21 has a logP of 3.14.
CN1CC(C(=O)NC2(C)OC3(O)C4CCCN4C(=O)C(Cc4ccccc4)N3C2=O)C=C2c3cccc4[nH]cc(c34)CC21 (stereo not given) showed a logP of 4.38.
Molecule C#CCCCC(=O)c1cc(C(C)(C)C)c(O)c(C(C)(C)C)c1 has a logP of 5.63.
COc1ccc2c3c1O[C@H]1C(=O)CC[C@@]4(O)[C@@H](C2)N(C)CC[C@]314 showed a logP of 0.37.
CC[C@H]1OC(=O)[C@H](C)[C@@H](O[C@H]2C[C@@](C)(OC)[C@@H](O)[C@H](C)O2)[C@H](C)[C@@H](O[C@@H]2O[C@H](C)C[C@H](N(C)C)[C@H]2O)[C@](C)(O)C[C@@H](C)CN(C)[C@H](C)[C@@H](O)[C@]1(C)O gave a logP of 0.9.
CCC(C)n1ncn(-c2ccc(N3CCN(c4ccc(OC[C@H]5CO[C@](Cn6cncn6)(c6ccc(Cl)cc6Cl)O5)cc4)CC3)cc2)c1=O (stereo not given in full) showed a logP of 5.9.
With CCc1nn(CCCN2CCN(c3cccc(Cl)c3)CC2)c(=O)n1CCOc1ccccc1 the logP was 4.95.
OC(CNCC(O)C1CCc2cc(F)ccc2O1)C1CCc2cc(F)ccc2O1 (stereo not given) gave a logP of 2.76.
Work on CCCCCc1cc(O)c2c(c1)OC(C)(C)[C@@H]1CCC(C)=C[C@@H]21 yielded a logP of 6.99.
